From patent US20230174484A1, “ANTAGONISTS OF GPR39 PROTEIN” (Oregon Health & Science University, priority 2020, published 2023) come the findings set out here.

This experiment deals with T1, human GPR39 receptor (Homo sapiens, UniProt O43194).
T1 construct: PC3 Cells, Expressing the Endogenous Human GPR39 Receptor; endogenous in cells; host or cells: PC3 (human prostate adenocarcinoma) cells
T1 sequence (O43194 1-453): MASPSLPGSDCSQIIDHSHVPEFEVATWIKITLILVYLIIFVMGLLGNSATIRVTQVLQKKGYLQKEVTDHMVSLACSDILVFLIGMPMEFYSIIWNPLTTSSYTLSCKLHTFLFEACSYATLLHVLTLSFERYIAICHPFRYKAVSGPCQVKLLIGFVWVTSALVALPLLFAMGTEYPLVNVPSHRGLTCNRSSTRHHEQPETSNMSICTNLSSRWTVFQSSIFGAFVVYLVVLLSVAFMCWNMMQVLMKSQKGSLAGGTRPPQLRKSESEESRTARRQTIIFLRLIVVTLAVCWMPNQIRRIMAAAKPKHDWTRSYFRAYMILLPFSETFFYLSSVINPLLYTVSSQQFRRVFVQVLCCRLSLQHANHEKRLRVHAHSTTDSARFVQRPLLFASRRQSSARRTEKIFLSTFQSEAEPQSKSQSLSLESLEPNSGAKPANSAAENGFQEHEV
In words: Measurement of intracellular calcium response in PC3 cells (FLIPR), antagonism of the C3 agonist response. The experiment is classed as cell-based. Particulars: functional pKi (modified Cheng-Prusoff), inhibition of the C3 (TC-G 1008) response at EC90, 30 μM ZnCl2, read-out: fpKi activity. The method in brief: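 Potency was reported as fpKi, converted by modified Cheng-Prusoff from four-parameter IC50 fits against an EC90 C3 agonist challenge. Calcium-6 FLIPR readings used PC3 cells naturally expressing human GPR39, in pH 7.4 HEPES buffer containing 30 μM final ZnCl2. Score bands: +/± <5.2, + 5.2–5.9, ++ 6.0–6.5, +++ 6.6–7.2, ++++ ≥7.3.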
Background: Calcium assays in cells follow changes in intracellular calcium, usually with a dye or a luminescent sensor.

On to `CN1CCN(C(=O)c2ccc(NC(=O)C3CC3)nc2N2CCC(F)(F)CC2)C(c2ccccc2)C1` (racemic) [Example 146, N-[6-(4,4-difluoropiperidin-1-yl)-5-(4-methyl-2-phenylpiperazine-1-carbonyl)pyridin-2-yl]cyclopropanecarboxamide], for which the Ki lay in the range of 63.1 to 251 nM. Regarding `CCCN1CCN(C(=O)c2ccc(NC(=O)C3CC3)cc2-n2ccc(C)n2)CC1` [Example 8, N-(3-(3-methyl-1H-pyrazol-1-yl)-4-(4-propylpiperazine-1-carbonyl)phenyl)cyclopropanecarboxamide], the Ki is 63.1 to 251 nM. Next, `CCCN1CCN(C(=O)c2ccc(NC(=O)C3CCC3)cc2N2CCCCCC2)CC1` [Example 90, N-(3-(azepan-1-yl)-4-(4-propylpiperazine-1-carbonyl)phenyl)cyclobutanecarboxamide]: 1260 to 6310 nM.

On to `CN1CCN(C(=O)c2ccc(NC(=O)C3CC3)cc2N2CCC3(COC3)C2)C(c2cccc(Cl)c2)C1` (centres unmarked) [Example 212, N-[4-[2-(3-chlorophenyl)-4-methylpiperazine-1-carbonyl]-3-(2-oxa-7-azaspiro[3.4]octan-7-yl)phenyl]cyclopropanecarboxamide], for which the Ki lay in the range of 63.1 to 251 nM. With `O=C(NCc1ccccc1)c1ccc(NC(=O)C2CC2)cc1N1CCCCCC1` [Example 43, 2-(azepan-1-yl)-N-benzyl-4-cyclopropaneamidobenzamide], the Ki lay in the range of 316 to 1000 nM. In the case of `C[C@@H]1C[C@H](C)CN(c2cc(NC(=O)C3CC3)ccc2C(=O)N2CCS(=O)(=O)CC2)C1` [Example 67, Syn N-[3-[-3,5-dimethylpiperidin-1-yl]-4-(1,1-dioxo-1,4-thiazinane-4-carbonyl)phenyl]Cyclopropanecarboxamide], the Ki is no more than 50.1 nM. The figure for `O=C(Nc1ccc(C(=O)N2CCS(=O)(=O)CC2)c(N2CC3CC(C3)C2)c1)C1CC1` [Example 195, N-[3-(3-azabicyclo[3.1.1]heptan-3-yl)-4-(1,1-dioxo-1,4-thiazinane-4-carbonyl)phenyl]cyclopropanecarboxamide] is 63.1 to 251 nM; for `Cc1nnc(-c2ccc(C(=O)N3CCC(F)(F)CC3)c(-n3ccc(C(F)(F)F)n3)c2)[nH]1` [Example 208] it is no more than 50.1 nM; for `O=C(Nc1ccc(C(=O)N2CCOCC2)c(N2CCCCCC2)c1)C1CC1` [Example 45, N-(3-(azepan-1-yl)-4-(morpholine-4-carbonyl)phenyl)cyclopropanecarboxamide] it is 316 to 1000 nM. The figure for `O=C(Nc1ccc(C(=O)N2CCS(=O)(=O)CC2)c(-n2cc(C(F)(F)F)cn2)c1)C1CC1` [Example 182, N-[4-(1,1-dioxo-1,4-thiazinane-4-carbonyl)-3-[4-(trifluoromethyl)pyrazolyl]phenyl]cyclopropanecarboxamide] is 316 to 1000 nM; for `CN1CCN(C(=O)c2ccc(NC(=O)C3CC3)cc2N2CCCCCC2)C(c2ccccn2)C1` (centres unmarked) [Example 74, N-[3-(azepan-1-yl)-4-(4-methyl-2-pyridin-2-ylpiperazine-1-carbonyl)phenyl]cyclopropanecarboxamide] it is 1260 to 6310 nM; for `CCCN1CCN(C(=O)c2ccc(NC(=O)C3CC3)cc2N2CCCCCC2)C(c2ccccc2)C1` (single isomer, unassigned) [Example 73a, N-[3-(azepan-1-yl)-4-(2-phenyl-4-propylpiperazine-1-carbonyl)phenyl]Cyclopropanecarboxamide] it is no more than 50.1 nM.

On to `CN1CCN(C(=O)c2ccc(NC(=O)C3CC3)cc2N2CCCC2)C(c2ccc(F)cc2)C1` (racemic) [Example 89, N-[4-[2-(4-fluorophenyl)-4-methylpiperazine-1-carbonyl]-3-pyrrolidin-1ylphenyl]cyclopropanecarboxamide], for which the Ki fell in the range of 316 to 1000 nM. The figure for `CCCN1CCN(C(=O)c2ccc(NC(=O)C3CC3)cc2N2CCC(c3ccccc3)C2)CC1` (centres unmarked) [Example 5, N-(3-(3-phenylpyrrolidin-1-yl)-4-(4-propylpiperazine-1-carbonyl)phenyl) cyclopropanecarboxamide] is 316 to 1000 nM; for `CN1CCN(C(=O)c2ccc(NC(=O)C3CC3)cc2N2CCCC2)C(c2ccc(Cl)cc2)C1` (racemic) [Example 176, N-[4-[2-(4-chlorophenyl)-4-methylpiperazine-1-carbonyl]-3-pyrrolidin-1-ylphenyl]cyclopropanecarboxamide] it is 316 to 1000 nM; for `Cc1ccn(-c2cc(NC(=O)C3CC3)ccc2C(=O)N2CCN(C)CC2c2ccccc2)n1` (racemic) [Example 155c, N-[4-(4-methyl-2-phenylpiperazine-1-carbonyl)-3-(3-methylpyrazol-1-yl)phenyl]cyclopropanecarboxamide] it is 316 to 1000 nM. The figure for `O=C(Nc1ccc(C(=O)N2CCN(c3ccccc3)CC2)c(N2CCCCCC2)c1)C1CC1` [Example 52, N-(3-(azepan-1-yl)-4-(4-phenylpiperazine-1-carbonyl)phenyl)cyclopropanecarboxamide] is 63.1 to 251 nM; for `O=C(Nc1ccc(C(=O)N2CCS(=O)(=O)CC2)c(N2CCCC(C(F)(F)F)C2)c1)C1CC1` (single isomer, unassigned) [Example 185b, N-[4-(1,1-dioxo-1,4-thiazinane-4-carbonyl)-3-[3R or 3S-(trifluoromethyl)piperidin-1-yl]phenyl]cyclopropanecarboxamide] it is no more than 50.1 nM. Next, `O=C(Nc1ccc(C(=O)N2CCn3c(nnc3C(F)(F)F)C2)c(N2CCCCCC2)c1)C1CC1` [Example 41]: 1260 to 6310 nM; `Cn1c(Sc2ccccc2)nnc1-c1ccc(NC(=O)C2CC2)cc1N1CCCCCC1` [Example 110, N-[3-(azepan-1-yl)-4-(4-methyl-5-phenylsulfanyl-1,2,4-triazol-3-yl)phenyl]cyclopropanecarboxamide]: 63.1 to 251 nM. Regarding `O=C(Nc1ccc(C(=O)N2CCN(Cc3ccon3)CC2c2ccccc2)c(N2CCCCCC2)c1)C1CC1` (centres unmarked) [Example 82, N-[3-(azepan-1-yl)-4-[4-(1,2-oxazol-3-ylmethyl)-2-phenylpiperazine-1-carbonyl]phenyl]Cyclopropanecarboxamide], the Ki is no more than 50.1 nM. With `CC(C)C1CN(C)CCN1C(=O)c1ccc(NC(=O)C2CC2)cc1N1CCCCCC1` (centres unmarked) [Example 79, N-[3-(azepan-1-yl)-4-(4-methyl-2-propan-2-ylpiperazine-1-carbonyl)phenyl]Cyclopropanecarboxamide], the Ki lay within 1260 to 6310 nM. With `CN1CCN(C(=O)c2ccc(NC(=O)C3CC3)cc2N2CCC3(CCC3)C2)C(c2ccccc2)C1` (single isomer, unassigned) [Example 66a, N-[3-(6-azaspiro[3.4]octan-6-yl)-4-(4-methyl-2-phenylpiperazine-1-carbonyl)phenyl]cyclopropanecarboxamide], the Ki is no more than 50.1 nM. Take `O=C(NCc1ccccn1)c1ccc(NC(=O)C2CC2)cc1N1CCCCCC1` [Example 42, 2-(azepan-1-yl)-4-cyclopropaneamido-N-[(pyridin-2-yl)methyl]benzamide]: the Ki lay in the range of 316 to 1000 nM. As to `O=C(Nc1ccc(C(=O)N2CCS(=O)(=O)CC2)c(N2CCC3(CCC3)C2)c1)C1CC1` [Example 65, N-[3-(6-azaspiro[3.4]octan-6-yl)-4-(1,1-dioxo-1,4-thiazinane-4-carbonyl)phenyl]cyclopropanecarboxamide], the Ki is no more than 50.1 nM. The figure for `CN1CCN(C(=O)c2ccc(-c3nnc(C4CC4)[nH]3)cc2N2CCCC2)C(c2ccccc2)C1` (racemic) [Example 151c, [4-(5-cyclopropyl-4H-1,2,4-triazol-3-yl)-2-pyrrolidin-1-ylphenyl]-(4-methyl-2phenylpiperazin-1-yl)methanone] is 63.1 to 251 nM; for `CCCN1CCN(C(=O)c2ccc(Nc3nnc(C4CC4)[nH]3)cc2N2CCCCCC2)CC1` [Example 98] it is 1260 to 6310 nM; for `Cn1c(Sc2ccccn2)nnc1-c1ccc(NC(=O)C2CC2)cc1N1CCCC1` [Example 116, N-[4-(4-methyl-5-pyridin-2-ylsulfanyl-1,2,4-triazol-3-yl)-3-pyrrolidin-1-ylphenyl]cyclopropanecarboxamide] it is 1260 to 6310 nM. The figure for `CN1CCN(C(=O)c2ccc(NC(=O)C3CC3)nc2N2CC3CC3C2)C(c2ccccc2)C1` (racemic) [Example 145] is 63.1 to 251 nM; for `O=C(Nc1ccc(C(=O)N2CCCCC2c2nnnn2Cc2ccccc2)c(N2CCCCCC2)c1)C1CC1` (centres unmarked) [Example 54, N-[3-(azepan-1-yl)-4-[2-(1-benzyltetrazol-5-yl)piperidine-1-carbonyl]phenyl]cyclopropanecarboxamide] it is 63.1 to 251 nM; for `CN1CCN(C(=O)c2ccc(NC(=O)C3CC3)cc2N2CCCCCC2)C(CO)C1` (centres unmarked) [Example 77, N-[3-(azepan-1-yl)-4-[2-(hydroxymethyl)-4-methylpiperazine-1-carbonyl]phenyl]cyclopropanecarboxamide] it is 1260 to 6310 nM.

In the case of `CC1CC(C)CN(c2cc(NC(=O)C3CC3)ccc2-c2nnc(Sc3ccccc3)n2CCN(C)C)C1` (centres unmarked) [Example 115, N-[4-[4-[2-(dimethylamino)ethyl]-5-phenylsulfanyl-1,2,4-triazol-3-yl]-3-(3,5-dimethylpiperidin-1-yl)phenyl]cyclopropanecarboxamide], the Ki lay within 316 to 1000 nM.
